Laboratory results reported in patent publication US20250288583A1, “Treatment of Mucus Hypersecretion” (priority 2024, published 2025).
Entries after “also recorded” stand apart in the source; their conditions may differ.

Legend:
TRPV1 = biological target: T1, TRPV1 (Homo sapiens, UniProt Q8NER1); test: TRPV1 specificity assay in transfected cells; type: cell-based; conditions: FIG. 5; capsaicin positive control
T1 construct: expressed in transfected cells

ocular margins = test: Cooling duration bioassay on eyelids/ocular margins; type: in vivo, human; conditions: for Duration of effects on the ocular margins, on average: test concentration 1 mg/mL
Text: FIG. 1. Comparison of cooling duration of various p-menthanecarboxamide analogs on philtrum skin versus ocular margins. The philtrum skin is keratinized, but the ocular margins are not. The test substances numbered 1 to 11 are: D-Ala-OiPr, Gly-OiPr, D-Ala-OEt, D-Ala-OMe, D-Ala-GlynPr, GlynPr, D-Ala-OnBu, GlynBu, GlyOEt, L-Ala-OEt, and N-Me-D-Ala-OEt, respectively. Two outliers (1 and 2) were identified as preferred embodiments because they preferentially cool the ocular margins. The nasal cavity surfaces like the ocular margins are not keratinized.
Cooling agents have been assayed in various ways depending on intended use. For example, for the skin the test substance can be applied on philtrum skin, using descriptions of coolness on a scale of 0 to 3. For the ocular surface, the active ingredient can be applied to the closed eyelids using a wipe. In the oral cavity, drug applications are on the posterior dorsal surface of the tongue. For the oropharyngeal surface, the cooling agent may be applied as an orally disintegrating tablet. The ability of a cooling agent to antagonize a noxious stimuli may also be tested, using nociception from citric acid or chili pepper sauce. Responses are usually measured using a Visual Analog Scale with a numerical rating. For nasal responses, however, such procedures have not been standardized. Some endpoints to consider are open and comfortable breathing, the presence or absence of sniffles, and the secretion of phlegm.

nasal cavity = test: Nebulizer screening of TRPM8 agonists for sensations in the nasal cavity; type: in vivo, human; conditions: NasoNeb nebulizer, 3 to 5 sec per nostril
ostiomeatal complex = test: Case studies: nebulized cooling agent in subjects with rhinitis and rhinosinusitis; type: in vivo, human; conditions: for Relief of stuffiness and breathing: NasoNeb delivery in subjects with rhinosinusitis
Text: Eight subjects with rhinitis and rhinosinusitis volunteered to test cooling agents delivered with the NasoNeb® nebulizer (FIG. 3). The results were clear, robust, and evident. No statistical analysis was necessary. In a 3 to 5-day course of nebulization t.i.d., all subjects reported the ability to manage and control stuffed-up breathing in their activities. All reported comfortable sleep. The sounds of sniffling and congestion of the nose (“sniffles”), snorting, or gurgling were still present, but to a lesser degree. The subject felt it was easier to blow out liquids from the nasal cavity onto a tissue, and the volume and frequency of blowing decreased. Viscous yellow mucus was less in volume and density. The number of wipes deposited daily into a waste basket decreased by >50%. The subjects-were cheerful and enthusiastic because nasal discomfort was under control. As one subject remarked: “The stuffed-up nose problem is now history!” Severat of these cases are reported below as “Case Studies.”
The subject was given a NasoNeb® nebulizer (unavailable in China) and five individual bottles containing 15 mL of a 1% GlyOiPr solution (suspended in 2% Tween 80, 5% ethanol, and 92% water). They were shown how to load the NasoNeb canister with about 2 mL of liquid and activate the device for a 3-second dose into each nostril. The recommended dosage was three times a day, starting in the morning and at about 6-hour intervals, and for five days.
The subject agreed to using the NasoNeb nebulizer with a cooling agent. They were given a NasoNeb nebulizer and three bottles, each containing 15 ml of a 1% GlyOiPr solution (suspended in 2% Tween 80, 5% ethanol, and 92% water). They were shown how to load the NasoNeb canister with about 2 mL of liquid and activate the device for a 3-second dose into each nostril. The recommended dosage was three times a day, starting in the morning and at about 6-hour intervals, and for five days. After a 5-day trial, the subject noted a significant improvement in sleep and comfortable breathing. […] Their headaches were gone, and their appetite improved. They were advised to continue using the Nebulizer/coolant for another week and then on an as-needed basis. Their family has noticed that the subject has become less withdrawn, more engaging, and interested in their surroundings.
The subject volunteered for a trial with GlyOiPr. They were given a NasoNeb® machine and a plastic squeeze bottle containing 50 mL of GlyOiPr at 3 mg/mL suspended in 1% ethanol/2% polysorbate 80. They learned how to load the canister and activate the pump. Then, they were instructed to rinse their nose thoroughly first thing in the morning and then use the Nebulizer at 5 sec per nostril to deliver the solution. The procedure was to be repeated at 2 hours and 5 hours later to total three daily activations. The subject was interviewed after dosing for three days. They said breathing was much easier at night after the dosing, and they slept well. Nasal secretions were still present but less in volume. […] They were encouraged to use the Nebulizer as needed but not to exceed three daily doses. Three weeks after the start of the experiment, they reported that they were in complete control of their rhinitis. They would do a single dose at night before sleep and one in the morning when needed. They no longer felt congested, and the headaches were gone. The slimy phlegm in the nostrils was gone, and crusting was absent. Their nose felt clean. Their social life improved.
Their main complaint was episodes at night when they would wake up and not be able to breathe comfortably. Sleep apnea and lung disorders were ruled out, and the diagnosis was rhinosinusitis. This was confirmed by a computerized tomography scan and endoscopic examination by a qualified ENT specialist. They agreed to test the preferred embodiments GlyOnPr, GlyOiPr, D-Ala-OnPr, and D-Ala-OiPr systematically, one after the other.

T1 sequence (Q8NER1 whole entry, species assumed): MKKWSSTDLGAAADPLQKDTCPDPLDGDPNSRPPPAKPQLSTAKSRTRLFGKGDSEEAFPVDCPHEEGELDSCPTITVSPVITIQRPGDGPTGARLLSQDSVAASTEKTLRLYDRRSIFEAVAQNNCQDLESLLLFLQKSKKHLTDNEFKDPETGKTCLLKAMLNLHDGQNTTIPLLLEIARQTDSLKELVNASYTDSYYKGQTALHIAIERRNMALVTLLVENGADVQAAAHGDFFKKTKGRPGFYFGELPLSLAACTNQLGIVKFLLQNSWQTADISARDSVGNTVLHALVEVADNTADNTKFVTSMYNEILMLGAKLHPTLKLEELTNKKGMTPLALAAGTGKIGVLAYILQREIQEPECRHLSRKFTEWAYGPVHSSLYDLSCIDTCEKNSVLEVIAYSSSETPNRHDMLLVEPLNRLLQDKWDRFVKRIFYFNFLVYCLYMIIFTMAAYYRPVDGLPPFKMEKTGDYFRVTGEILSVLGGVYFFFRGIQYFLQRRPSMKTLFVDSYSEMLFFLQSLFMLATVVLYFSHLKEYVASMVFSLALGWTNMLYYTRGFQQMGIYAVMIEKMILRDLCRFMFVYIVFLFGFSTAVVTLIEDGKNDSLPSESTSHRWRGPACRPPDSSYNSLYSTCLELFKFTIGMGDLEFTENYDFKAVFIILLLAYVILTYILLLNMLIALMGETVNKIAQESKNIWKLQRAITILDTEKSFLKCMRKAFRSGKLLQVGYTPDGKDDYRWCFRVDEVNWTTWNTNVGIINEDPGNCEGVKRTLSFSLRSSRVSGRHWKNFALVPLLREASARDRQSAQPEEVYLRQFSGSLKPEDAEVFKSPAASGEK

Structure (SMILES)	Response of cells transfected with TRPV1 (TRPV1)	Ocular Surface (ocular margins; Table 7, Gly esters)	Duration of effects on the ocular margins, on average (ocular margins)	Duration on the ocular surface (ocular margins; test concentration increased from 1 mg/mL to 1.5 mg/mL)	Sensory effects after delivery into the nasal cavity (nasal cavity)	Number of Kleenex tissues used after treatment (ostiomeatal complex; GlyOiPr by NasoNeb three times a day)	Relief of stuffiness and breathing (ostiomeatal complex)	Decrease in number of wipes used to blow the nose (ostiomeatal complex; nebulization three times a day, several days)	Eyelids/Ocular Surface (ocular margins; Table 6, cooling duration, non-keratinized)
CC(C)OC(=O)CNC(=O)[C@@H]1C[C@H](C)CC[C@H]1C(C)C [GlyOiPr, [((1R,2S,5R)-2-isopropyl-5-methyl-cyclohexanecarbonyl)-amino]-acetic acid isopropyl ester]	do not respond; also recorded: activates TRPM8 but not TRPV1 or TRPA1	300 min	~5 h	about 6.5 hours	The sense of coolness is pure, without any harsh tones.	about five per day; also recorded: decline by half	immediate sensation of comfortable cooling in the nose and the ability to have unimpeded breathing; also recorded: provided relief	at least 50%	
CC(C)OC(=O)[C@@H](C)NC(=O)[C@@H]1C[C@H](C)CC[C@H]1C(C)C [D-Ala-OiPr, (R)-2-[((1R,2S,5R)-2-isopropyl-5-methyl-cyclohexanecarbonyl)amino]-propionic acid i-propyl ester]	inactive		~5 h		Longer-acting than GlyOiPr. Excellent agent. It may have a slightly bitter taste.		provided relief		360 min
